For this assay, the target named is Recombinant human LSD1 (Homo sapiens, UniProt O60341). As to the kind of experiment: LSD1 inhibition assay (HTRF LSD1 Histone H3K4 mono-demethylation assay, me1->me0). It is filed as biochemical. The following applies: 20 nM recombinant human LSD1, 95 nM H3K4(me1) biotinylated peptide, 15 min preincubation, 60 min at 25° C., read-out: LSD1 inhibition IC50 (nM range). An outline of the steps:
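Recombinant human LSD1 (20 nM) pre-incubated 15 min with 10 semi-log compound doses, then 95 nM biotinylated H3K4me1 peptide for 60 min at 25 °C in pH 8.5 Tris/NaCl buffer with 10 μM FAD, 1 mM DTT. HTRF me0-antibody read after 90 min; IC50 from 4-parameter fit.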

On to `N#Cc1ccc(-c2cccc(CN3CC[C@@H]4NCCC[C@@H]43)c2C2CC2)cc1F` [Example 271, Fc1cc(ccc1C#N)c2cccc(CN3CC[C@@H]4NCCC[C@H]34)c2C5CC5], for which the IC50 (in general, the midpoint of a concentration-inhibition curve) lay within 100 to 1000 nM.

Consider `CN[C@H]1CCCCN(Cc2cccc(-c3ccc(C#N)c(F)c3)c2C2CC2)C1` [Example 272, 2'-cyclopropyl-3-fluoro-3'-{[(3S)-(methylamino)azepan-1-yl]methyl}-[1,1'-biphenyl]-4-carbonitrile], for which the IC50 was in the range of 100 to 1000 nM.

As to `N#Cc1ccc(-c2cccc(CN3CC[C@@H]4NCC[C@@H]43)c2C2CC2)cc1F` [Example 273, 3'-{[(3aS,6aS)-octahydropyrrolo[3,2-b]pyrrol-1-yl]methyl}-2'-cyclopropyl-3-fluoro-[1,1'-biphenyl]-4-carbonitrile], the IC50 fell in the range of 25 to 100 nM. The same measure for `N#Cc1ccc(-c2cccc(CN3C4CNCC3C4)c2C2CC2)cc1F` [Example 274, 2'-cyclopropyl-3'-({3,6-diazabicyclo[3.1.1]heptan-6-yl}methyl)-3-fluoro-[1,1'-biphenyl]-4-carbonitrile]: 100 to 1000 nM; for `CN1CCC2CN(Cc3cccc(-c4ccc(C#N)c(F)c4)c3C3CC3)CC21` (centres unmarked) [Example 276, 2'-cyclopropyl-3-fluoro-3'-({1-methyl-octahydropyrrolo[2,3-c]pyrrol-5-yl}methyl)-[1,1'-biphenyl]-4-carbonitrile]: 100 to 1000 nM. For `CN1CC2CN(Cc3cccc(-c4ccc(C#N)c(F)c4)c3C3CC3)CC21` (centres unmarked) [Example 277, 2'-cyclopropyl-3-fluoro-3'-({6-methyl-3,6-diazabicyclo[3.2.0]heptan-3-yl}methyl)-[1,1'-biphenyl]-4-carbonitrile] the value was 25 to 100 nM; for `CC1(C)CN(Cc2cccc(-c3ccc(C#N)c(F)c3)c2C2CC2)CC1N` (centres unmarked) [Example 278, 3'-[(4-amino-3,3-dimethylpyrrolidin-1-yl)methyl]-2'-cyclopropyl-3-fluoro-[1,1'-biphenyl]-4-carbonitrile], 100 to 1000 nM.

Take `N#Cc1ccc(-c2cccc(Cn3ncc4c3CNCC4)c2-c2cncs2)cc1F` [Example 280, 3-fluoro-3'-({1H,4H,5H,6H,7H-pyrazolo[3,4-c]pyridin-1-yl}methyl)-2'-(1,3-thiazol-5-yl)-[1,1'-biphenyl]-4-carbonitrile]: the IC50 was in the range of 100 to 1000 nM. The same measure for `N#Cc1ccc(-c2cccc(CN3CCCCC34CCCNC4)c2Cl)cc1F` (centres unmarked) [Example 281, 2'-chloro-3'-({1,8-diazaspiro[5.5]undecan-1-yl}methyl)-3-fluoro-[1,1'-biphenyl]-4-carbonitrile]: over 1000 nM; for `N#Cc1ccc(-c2cccc(CN3CC4CCC3CN4)c2Cl)cc1F` (centres unmarked) [Example 283, 2'-chloro-3'-({2,5-diazabicyclo[2.2.2]octan-2-yl}methyl)-3-fluoro-[1,1'-biphenyl]-4-carbonitrile]: 100 to 1000 nM. On to `N#Cc1ccc(-c2cccc(CN3CC4CNC(C4)C3)c2Cl)cc1F` (centres unmarked) [Example 284, 2'-chloro-3'-({3,6-diazabicyclo[3.2.1]octan-3-yl}methyl)-3-fluoro-[1,1'-biphenyl]-4-carbonitrile], for which the IC50 fell in the range of 100 to 1000 nM. The same measure for `N#Cc1ccc(-c2cccc(CN3C[C@H](N)C[C@H](F)C3)c2Cl)cc1F` [Example 285, 3'-{[(3R,5S)-3-amino-5-fluoropiperidin-1-yl]methyl}-2'-chloro-3-fluoro-[1,1'-biphenyl]-4-carbonitrile]: 100 to 1000 nM; for `CC1(N)CCCN(Cc2cccc(-c3ccc(C#N)c(F)c3)c2Cl)C1` (centres unmarked) [Example 286, 3'-[(3-amino-3-methylpiperidin-1-yl)methyl]-2'-chloro-3-fluoro-[1,1'-biphenyl]-4-carbonitrile]: over 1000 nM; for `N#Cc1ccc(-c2cccc(CN3CC4CC4(N)C3)c2Cl)cc1F` (centres unmarked) [Example 287, 3'-({1-amino-3-azabicyclo[3.1.0]hexan-3-yl}methyl)-2'-chloro-3-fluoro-[1,1'-biphenyl]-4-carbonitrile]: over 1000 nM.

The values above are taken from patent US20260209214A1, “LSD1 MODULATORS” (RECURSION PHARMACEUTICALS, INC., priority 2022, published 2026).
